# Laboratory results published in patent publication US20080300288A1, “Alkenyldiarylmethanes, Fused Analogs And Syntheses Thereof” (PURDUE RESEARCH FOUNDATION, priority 2005, published 2008).
# Where two headings read alike, the source gives them in different places.
# Key:
# [1] = tested on: HIV-1RF; test: MTS cytoprotection assay, HIV-1RF infection in CEM-SS cells; assay type: cell-based; details: Human immunodeficiency virus 1; HIV-1RF in CEM-SS cells; read-out: EC50 HIV-1RF (inhibition of cytopathicity)
# Procedure: (§1) In Vitro Antiviral Assays. Evaluation of the antiviral activity of compounds against HIV-1RF infection in CEM-SS cells was performed using the MTS cytoprotection assay as previously described. See, Rice, W. G.; Bader, J. P. Discovery and in Vitro Development of AIDS Antiviral Drugs as Biopharmaceuticals. Adv. Pharmacol. (San Diego) 1995, 6, 389-438, the disclosure of which is incorporated herein by reference. […] See, Pauwels, R.; Balzarini, J.; Baba, M.; Snoeck, R.; Schols, D.; Herdewijn, P.; Desmyter, J.; De Clercq, E. Rapid and Automated Tetrazolium-based Colorimetric Assay for Detection of Anti-HIV Compounds. J. Virol. Methods 1988, 20, 309-321, the disclosure of which is incorporated herein by reference.
# [2] = molecular target: T1, recombinant HIV-1 RT enzyme (p66/51 dimer) (Human immunodeficiency virus type 1 group M subtype B, UniProt P04585); test: RT inhibition assay, incorporation of [32P]GTP into poly(rC)/oligo(dG); assay type: biochemical
# T1 construct: recombinant HIV-1 RT enzyme (p66/51 dimer)
# Procedure: RT Inhibition Assay. Analysis of the effects of the compounds on recombinant HIV-1 RT enzyme (p66/51 dimer) was performed as previously described. See, Buckheit, R. W. J.; Fliakas-Boltz, V.; Decker, W. D.; Robertson, J. L.; Stup, T. L.; Pyle, C. […] Antiviral Res. 1995, 26, 117-132, the disclosure of which is incorporated herein by reference. Briefly, inhibition of purified recombinant reverse transcriptase enzyme was measured by the incorporation of [^32P]GTP into poly(rC)/oligo(dG) (rCdG) homopolymer template primers.
# [3] = In vitro hydrolytic stability study in rat plasma; assay type: in vitro ADME; details: rat plasma in vitro, half-life
# Procedure: NMR spectra were obtained at 300 MHz (^1H) and 75 MHz (^13C) in CDCl3 using CHCl3 as internal standard. Flash chromatography was performed with 230-400 mesh silica gel. […] Melting points are uncorrected. Unless otherwise stated, chemicals and solvents were of reagent grade and used as obtained from commercial sources without further purification. Tetrahydrofuran (THF) was freshly distilled from sodium/benzophenone ketyl radical prior to use. Dichloromethane was freshly distilled from calcium hydride prior to use. Lyophilized rat plasma (lot 052K7609) was obtained from Sigma Chemical Co., St. Louis, Mo. All yields given refer to isolated yields.
# In vitro Hydrolytic Stability Study in Rat Plasma. […] See, Silvestri, M. A.; Nagarajan, M.; De Clercq, E.; Pannecouque, C.; Cushman, M. Design, Synthesis, Anti-HIV Activities, and Metabolic Stabilities of Alkenyldiarylmethane (ADAM) Non-nucleoside Reverse Transcriptase Inhibitors. J. Med. Chem. 2004, 47, 3149-3162, the disclosure of which is incorporated herein by reference.
# [4] = tested on: MT-4 cells; test: Cytotoxicity in mock-infected MT-4 cells; assay type: cell-based; details: read-out: CC50 MT-4 Cells (50% cytotoxic concentration)
# [5] = tested on: CEM-SS cells; test: Cytotoxicity in mock-infected CEM-SS cells; assay type: cell-based; details: read-out: CC50 CEM-SS Cells (50% cytotoxic concentration)
# Procedure: as §1, with “[…].;” for “D.; Herdewijn, P.; Desmyter, J.;”, “[…].” for “Clercq, E.”
# [6] = tested on: HIV-1 strain IIIB; test: MTT assay, HIV-1 strain IIIB in MT-4 cells; assay type: cell-based; details: Human immunodeficiency virus 1, MT4; HIV-1IIIB in MT-4 cells; read-out: EC50 HIV-1IIIB (inhibition of cytopathicity)
# [7] = tested on: HIV-2 strain (ROD); test: MTT assay, HIV-2 strain (ROD) in MT-4 cells; assay type: cell-based; details: Human immunodeficiency virus 2, MT4; HIV-2ROD in MT-4 cells; read-out: EC50 HIV-2-ROD (inhibition of cytopathicity)
# [8] = Cytotoxicity in mock-infected MT-4 cells; assay type: cell-based; details: human, uninfected (mock-infected) MT-4 cells
# [9] = Cytotoxicity in mock-infected CEM-SS cells; assay type: cell-based; details: human, uninfected (mock-infected) CEM-SS cells
# Procedure: as §1, with “[…].;” for “D.; Herdewijn, P.; Desmyter, J.;”, “[…].” for “Clercq, E.”
Compound,EC50 [1] [µM],"IC50 ([2]; poly(rC)•oligo(dG) as the template primer, read-out: IC50 (inhibitory activity vs HIV-1 reverse transcriptase)) [µM]",Rat Plasma tp1/2 (min ± SD) [3] [min],CC50 [4] [µM],CC50 [5] [µM],EC50 [6] [µM],IC50 [2] [µM],EC50 [7] [µM],CC50 [8] [µM],CC50 [9] [µM],melting point [°C]
"COC(=O)CCCC=C(c1cc(C)c(OC)c(C(=O)OC)c1)c1cc(C)c(OC)c(C(=O)OC)c1 [Compound 1, Methyl 4′,4″-Dimethoxy-3′,3″-di(methoxycarbonyl)-5′,5″-dimethyl-6,6-diphenyl-5-hexenoate]",0.25,1,0.76 ± 0.04,6.1,6,1,,,,,
"COC(=O)CCC/C=C(\c1cc(C)c(OC)c(C(=O)OC)c1)c1cc(C)c2oc(=O)n(C)c2c1 [Compound 64, (E)-5-[1-(3,7-Dimethyl-2-oxo-2,3-dihydro-benzoxazol-5-yl)-5-methoxycarbonyl-pent-1-enyl]-2-methoxy-3-methylbenzoic Acid Methyl Ester]",0.03,,1.30 ± 0.09,16.9,5.1,0.09,0.02,> 16.9,,,
"COC(=O)c1cc(/C(=C/CCN2CCOC2=O)c2ccc(OC)c(OC)c2)cc(C)c1OC [Compound 4, (Z)-5-[1-(3,4-Dimethoxyphenyl)-4-(2-oxo-oxazolidin-3-yl)-but-1-enyl]-2-methoxy-3-methyl-benzoic Acid Methyl Ester]",> 100,,0.79 ± 0.10,,,> 33.8,0.9,> 35.4,83.1,0.6,
"COC(=O)CCC/C=C(/c1ccc(OC)c(C(=O)OC)c1)c1cc(C)c2oc(=O)n(C)c2c1 [Compound 62, (Z)-5-[1-(3,7-Dimethyl-2-oxo-2,3-dihydrobenzoxazol-5-yl)-5-methoxycarbonyl-pent-1-enyl]-2-methoxy-benzoic Acid Methyl Ester]",3.08,,0.34 ± 0.15,,,4.15,0.99,> 115,115,> 13.5,134 to 135
"COC(=O)CCC/C=C(\c1cc(F)cc(C(F)(F)F)c1)c1cc(C)c2oc(=O)n(C)c2c1 [Compound 63, (Z)-6-(3,7-Dimethyl-2-oxo-2,3-dihydrobenzoxazol-5-yl)-6-(3-fluoro-5-trifluoromethylphenyl)-hex-5-enoic Acid Methyl Ester]",> 100,,3.06 ± 0.32,,,4.36,> 100,> 60,51,15,
"COC(=O)CCC/C=C(/c1cc(Cl)c(OC)c(C(=O)OC)c1)c1cc(C)c2oc(=O)n(C)c2c1 [Compound 61, (E)-3-Chloro-5-[1-(3,7-dimethyl-2-oxo-2,3-dihydro-benzoxazol-5-yl)-5-methoxycarbonyl-pent-1-enyl]-2-methoxybenzoic Acid Methyl Ester]",0.53,,0.19 ± 0.01,,,0.25,0.93,> 29.7,29.7,9.47,
"COC(=O)CCC/C=C(/c1cc(F)cc(C(F)(F)F)c1)c1cc(C)c(OC)c(C(=O)OC)c1 [Compound 15, (E)-5-[1-(3-Fluoro-5-trifluoromethylphenyl)-5-methoxycarbonyl-pent-1-enyl]-2-methoxy-3-methylbenzoic Acid Methyl Ester]",7.3,,4.35 ± 0.41,,,2.54,55.3,10.6,113,9.3,
"COC(=O)CCCC=C(c1cc(C)c2oc(=O)n(C)c2c1)c1cc(C)c2oc(=O)n(C)c2c1 [Compound 66, 6,6-Bis-(3,7-dimethyl-2-oxo-2,3-dihydrobenzoxazol-5-yl)-hex-5-enoic Acid Methyl Ester]",0.62,,0.59 ± 0.01,,,0.22,0.5,> 32.5,32.5,31,
"COC(=O)CCC/C=C(/c1cc(C)c(OC)c(C(=O)OC)c1)c1cc(C)c2oc(=O)n(C)c2c1 [Compound 60, (Z)-5-[1-(3,7-Dimethyl-2-oxo-2,3-dihydro-benzoxazol-5-yl)-5-methoxycarbonyl-pent-1-enyl]-2-methoxy-3-methylbenzoic Acid Methyl Ester]",0.87,,1.74 ± 0.00,,,1.01,0.16,> 28.2,28.2,9.39,
